Measured values: US6805865B1, “Compositions and methods for treating cancer and hyperproliferative disorders” (EntreMed, Inc., priority 1993, dated 2004)

Tests used:
HUVEC = test: bFGF stimulated HUVEC proliferation in the presence of bFGF peptides; type: cell-based; conditions: free synthetic peptide, in vitro
bFGF = test: Serum antibody response (ELISA) after vaccination with bFGF peptides conjugated to lipid A liposomes; type: in vivo; conditions: C57BL/6J mice, peptide covalently conjugated to liposomal vesicles containing lipid A
Description: Both peptides A and B were incorporated into lipid A containing liposomes and used separately in a vaccination protocol. Peptides were conjugated to liposomes according to the methods and protocols described above in Example 8. Mice were immunized and boosted twice, bled and pooled serum analyzed for anti-peptide antibody titer and crossreactivity to bFGF by ELISA.
The comparison of titers and crossreactivity for serum from mice vaccinated with whole bFGF or with the liposomal heparin binding domain peptide of bFGF vaccine is shown in FIG. 4 and a comparison of the titers and crossreactivity for serum from mice vaccinated with whole bFGF or the liposomal receptor binding domain peptide of bFGF vaccine is shown in FIG. 5.

[1] = system: bFGF-induced vascularization; test: bFGF-containing gelatin sponge implanted on liver of vaccinated mice, histology; type: in vivo; conditions: peptide-liposome vaccinated mice, sponge with recombinant human bFGF on liver, 14 days after implantation
Description: Following the vaccination protocol, mice were challenged with bFGF impregnated sponges and neovascularization assessed after 14 days, the results are shown in FIG. 6.
In order to determine if generation of antibody to the bFGF molecule has an effect on bFGF-induced vascularization, gelatin sponges containing recombinant human bFGF were implanted onto the left lobe of the liver of mice following vaccination with the liposomal lipid A controls, liposomes containing the heparin binding domain peptide, liposome containing the receptor binding domain peptide, or PBS. Fourteen days following implantation, the sponges were removed. Vascularity and leukocyte infiltration were assessed histologically. Well defined blood vessels containing red blood cells were evident in sponges removed from mice vaccinated with control preparations (liposomal lipid A and PBS). In addition, there was an abundant amount of cellular infiltration, consisting of white blood cells and fibroblasts. […] Although red blood cells were present in the histological sections of the sponge taken from mice vaccinated with the heparin binding domain peptide, they lacked well defined structures surrounding them.

B16BL6 = B16BL6 experimental lung metastasis after intravenous challenge of vaccinated mice; type: in vivo; conditions: peptide conjugated to liposomes, vaccinated and boosted, intravenous melanoma challenge, 14 days
Description: Fourteen days after the mice were vaccinated, boosted, and challenged with B16B16 murine melanoma, the animals were sacrificed and the lungs were removed and numbers of melanotic tumor nodules on the surface were counted.
Two weeks following the final boost , mice were intravenously challenged with B16BL6. Mice were sacrificed at day 14 following challenge. […] The heparin binding domain peptide bFGF covalently linked to liposomes was used as a positive control in this experiment.

B16BL6 melanoma = test: Growth of B16BL6 tumor cells in vitro with peptide and bFGF (cell counts); type: cell-based, murine; conditions: 10,000 cells/well, various peptide concentrations, media with 5 ng/ml bFGF
Description: B16BL6 melanoma were plated at 10,000 cells/well in a 24 well plate and incubated overnight. […] This example provides methods useful for selecting peptides useful for the methods and compositions of the present invention.

B16-BL6 melanoma cells = test: B16-BL6-containing gelatin sponge implanted on liver of vaccinated mice, histology; type: in vivo; conditions: peptide-liposome vaccinated mice, 14 days after implantation
Description: In order to determine if vaccination could inhibit the angiogenesis induced by a tumor, gelatin sponges were implanted containing B16-BL6 melanoma cells onto the liver of mice following vaccination with control liposomes (liposomal lipid A), liposomes linked to the heparin binding domain peptide, liposomes linked to the receptor binding domain peptide, or PBS. Fourteen days following implantation, the sponges are removed and examined histologically. Sponges removed from mice vaccinated with liposomal lipid A and PBS contained viable and proliferating B16BL6 tumor cells. In addition, neovascularization into the sponge was abundant. […] Similar to findings from sponges containing bFGF, there was a tremendous amount of red blood cells lacking defined structures surrounding them.

LLC-LM = LLC-LM experimental metastatic model, intravenous challenge, lung weight; type: in vivo, mice; conditions: peptide in liposome format, 3 inoculations two weeks apart, day 17, based on lung weight, versus control
Description: Efficacy of vaccination of mice with the heparin binding domain peptide bFGF in a liposome format was determined in the LLC-LM experimental metastatic model.
Mice were vaccinated with the heparin binding domain peptide of bFGF in a liposome format using the same vaccination regimen as in the B16BL6 experiments above (3 inoculations two weeks apart). Two weeks following the final boost, mice were intravenously challenged with LLC-LM. At day 17, the control (no treatment) mice began to succumb to the tumor burden in the lung. All groups were sacrificed. Lungs were removed and analyzed based on lung weight. Normal lung weight was subtracted out of the treated and non-treated groups to determine the T/C. Vaccination with the heparin binding domain peptide inhibited the growth and development of LLC-LM experimental metastasis by 94% when compared to control. These lungs have been photographed and will be assessed histologically.

Row | Sequence | bFGF stimulated HUVEC proliferation (HUVEC) | antibody response in serum (bFGF) | cellular infiltration and neovascularization of bFGF sponge [1] | bFGF stimulated HUVEC proliferation (HUVEC; listed as heparin-binding domain peptide) | mean number of lung metastases (B16BL6) | growth of B16BL6 cells, cell counts (B16BL6 melanoma) | neovascularization and tumor growth in B16-BL6 sponge (B16-BL6 melanoma cells) | inhibition of growth and development of LLC-LM experimental metastasis (LLC-LM)
1 | SNNYNTYRSRKYSSWYVALKR (listed as Homo sapiens) [receptor binding domain peptide, used free or conjugated to lipid A liposomes] | inhibited | no antibody response |  |  |  |  |  | 
2 | YCKNGGFFLRIHPDGRVDGVREKSDPHIKLQLQAEERGV VSIKGV (YCKNGGFFLRIHPDGRVDGVREKSDPHIKLQLQAEERGVVSIKGV; listed as Homo sapiens) [heparin binding domain peptide, used free or conjugated to lipid A liposomes] | inhibitory effect | antibody response | lack of cellular infiltration and neovascularization | inhibited | significantly reduces | no significant effect | blocked neovascularization and caused ablation of tumor growth and development | 94%
